From patent publication US11357779B2 (G1 Therapeutics, Inc., priority 2018, dated 2022)

Assay: Plasma concentration versus time of Compound I and metabolite Compound III in patients dosed QD or BID with Form B of Compound II plus fulvestrant
Assay type: in vivo, human
Source text: Patients were enrolled into 1 of 2 parallel, independently operating, dose-escalation dosing cohorts with Form B of Compound II administered continuously either once daily (QD) or twice daily (BID) with food with fixed-dose fulvestrant (intramuscularly every 14 days for the first three injections and then every 28 days). Pre- or perimenopausal patients also received goserelin for the duration of study treatment. A […] agonist was started at least 28 days before the first dose of Form B, and those patients who were taking another LHRH agonist were switched to goserelin on Day 1. Patients were split into […] cohorts providing once a day (QD) dosing of 200 mg, 300 mg, 400 mg, 500 mg, or 650 mg of Form B, or twice a day (BID) dosing of 100 mg, 150 mg, or 200 mg of Form B. The second dose in BID cohorts was not administered in the evening until at least 12 hours after the initial morning dose of Form B. The dosing cohorts for Form B of Compound II are provided in Table 1.
Blood samples were collected at the following time points relative to the morning dose of Form B at Day 1 and at Day 29: pre-dose (0 hour) and 1, 2, 3, 4, 6, 8, 10, 12 (prior to the evening dose in the BID cohorts), and 24 (prior to the next day's morning dose) hours after dosing. A 5-minute time window was allowed for samples collected between the predose and 3 hours after Form B dosing. A 15-minute window was allowed for samples collected between 4 to 12 hours after Form B dosing. A 1-hour window was allowed for the sample collected 24 hours after Form B dosing. Blood samples for Compound I PK trough levels were collected pre-dose at Day 8, Day 15, and Day 22 prior to the morning administration of Compound I. Plasma concentrations of Compound I and its metabolite, Compound III, were measured using validated methods.
Analysis of plasma concentration versus time data for calculation of standard pharmacokinetic (PK) parameters following oral administration was conducted using Phoenix WinNonlin version 6.3 using actual blood sampling times.

[1] = Cohort 3, 400 mg QD of Form B, Day 8
[2] = Cohort 3, 400 mg QD of Form B, Day 15
[3] = Cohort 3, 400 mg QD of Form B, Day 22
[4] = Cohort 4, 500 mg QD of Form B, Day 8
[5] = Cohort 4, 500 mg QD of Form B, Day 15
[6] = Cohort 4, 500 mg QD of Form B, Day 22
[7] = Cohort 7, 150 mg BID of Form B, Day 29, 0.0 h
[8] = Cohort 7, 150 mg BID of Form B, Day 29, 1.0 h
[9] = Cohort 7, 150 mg BID of Form B, Day 29, 2.0 h
[10] = Cohort 7, 150 mg BID of Form B, Day 29, 3.0 h
[11] = Cohort 7, 150 mg BID of Form B, Day 29, 4.0 h
[12] = Cohort 7, 150 mg BID of Form B, Day 29, 6.0 h
[13] = Cohort 7, 150 mg BID of Form B, Day 29, 8.0 h
[14] = Cohort 7, 150 mg BID of Form B, Day 29, 10.0 h
[15] = Cohort 7, 150 mg BID of Form B, Day 29, 12.0 h

Question: For CC(C)N1CCN(c2ccc(Nc3ncc4cc5n(c4n3)C3(CCCCC3)CNC5=O)nc2)CC1 [Compound I, 2′-((5-(4-isopropylpiperazin-1-yl)pyridin-2-yl)amino)-7′,8′-dihydro-6′H-spiro[cyclohexane-1,9′-pyrazino[1′,2′:1,5]pyrrolo[2,3-d]pyrimidin]-6′-one], which “Trough Compound I Concentration” value (200 mg QD of Form B, Day 8, Mean) is on record?
Answer: 4.93 ng/mL

Question: And the “Trough Compound I Concentration” value (200 mg QD of Form B, Day 8, Median)?
Answer: 4.22 ng/mL

Question: What about the “Trough Compound I Concentration” value (200 mg QD of Form B, Day 15, Mean) of the same compound?
Answer: 5.56 ng/mL

Question: What about the “Trough Compound I Concentration” value (200 mg QD of Form B, Day 15, Median) of the same compound?
Answer: 4.59 ng/mL

Question: What about the “Trough Compound I Concentration” value (200 mg QD of Form B, Day 22, Mean) of the same compound?
Answer: 6.24 ng/mL

Question: And the “Trough Compound I Concentration” value (200 mg QD of Form B, Day 22, Median)?
Answer: 5.32 ng/mL

Question: What about the “Trough Compound I Concentration” value (300 mg QD of Form B, Day 8, Mean) of the same compound?
Answer: 14.0 ng/mL

Question: And the “Trough Compound I Concentration” value (300 mg QD of Form B, Day 8, Median)?
Answer: 17.3 ng/mL

Question: And the “Trough Compound I Concentration” value (300 mg QD of Form B, Day 15, Mean)?
Answer: 16.7 ng/mL

Question: And the “Trough Compound I Concentration” value (300 mg QD of Form B, Day 15, Median)?
Answer: 19.9 ng/mL

Question: And the “Trough Compound I Concentration” value (300 mg QD of Form B, Day 22, Mean)?
Answer: 16.4 ng/mL

Question: What about the “Trough Compound I Concentration” value (300 mg QD of Form B, Day 22, Median) of the same compound?
Answer: 10.9 ng/mL

Question: And the “Trough Compound I Concentration, Max” value [1]?
Answer: 6.85 ng/mL

Question: What about the “Trough Compound I Concentration, Mean” value [1] of the same compound?
Answer: 5.63 ng/mL

Question: And the “Trough Compound I Concentration, Median” value [1]?
Answer: 6.16 ng/mL

Question: What about the “Trough Compound I Concentration, Min” value [1] of the same compound?
Answer: 3.87 ng/mL

Question: What about the “Trough Compound I Concentration, Max” value [2] of the same compound?
Answer: 10.2 ng/mL

Question: What about the “Trough Compound I Concentration, Mean” value [2] of the same compound?
Answer: 6.66 ng/mL

Question: What about the “Trough Compound I Concentration, Median” value [2] of the same compound?
Answer: 5.33 ng/mL

Question: What about the “Trough Compound I Concentration, Min” value [2] of the same compound?
Answer: 4.46 ng/mL

Question: And the “Trough Compound I Concentration, Max” value [3]?
Answer: 11.7 ng/mL

Question: What about the “Trough Compound I Concentration, Mean” value [3] of the same compound?
Answer: 9.34 ng/mL

Question: And the “Trough Compound I Concentration, Median” value [3]?
Answer: 10.4 ng/mL

Question: What about the “Trough Compound I Concentration, Min” value [3] of the same compound?
Answer: 5.91 ng/mL

Question: What about the “Trough Compound I Concentration, Mean” value [4] of the same compound?
Answer: 17.1 ng/mL

Question: And the “Trough Compound I Concentration, Min” value [4]?
Answer: 10.6 ng/mL

Question: And the “Trough Compound I Concentration, Mean” value [5]?
Answer: 23.8 ng/mL

Question: And the “Trough Compound I Concentration, Min” value [5]?
Answer: 14.5 ng/mL

Question: What about the “Trough Compound I Concentration, Mean” value [6] of the same compound?
Answer: 19.8 ng/mL

Question: And the “Trough Compound I Concentration, Min” value [6]?
Answer: 14.4 ng/mL

Question: And the “Trough Compound I Concentration, Mean” value (Cohort 7, 150 mg BID of Form B, Day 15)?
Answer: 24.8 ng/mL

Question: What about the “Trough Compound I Concentration, Mean” value (Cohort 7, 150 mg BID of Form B, Day 22) of the same compound?
Answer: 20.6 ng/mL

Question: What about the “Compound I Concentration, Mean” value [7] of the same compound?
Answer: 26.2 ng/mL

Question: And the “Compound I Concentration, Min” value [7]?
Answer: 9.03 ng/mL

Question: What about the “Compound I Concentration, Max” value [8] of the same compound?
Answer: 57.0 ng/mL

Question: And the “Compound I Concentration, Mean” value [8]?
Answer: 37.6 ng/mL

Question: What about the “Compound I Concentration, Min” value [8] of the same compound?
Answer: 27.0 ng/mL

Question: What about the “Compound I Concentration, Max” value [9] of the same compound?
Answer: 64.9 ng/mL

Question: And the “Compound I Concentration, Mean” value [9]?
Answer: 41.3 ng/mL

Question: What about the “Compound I Concentration, Min” value [9] of the same compound?
Answer: 24.6 ng/mL

Question: And the “Compound I Concentration, Max” value [10]?
Answer: 76.6 ng/mL

Question: What about the “Compound I Concentration, Mean” value [10] of the same compound?
Answer: 46.0 ng/mL

Question: And the “Compound I Concentration, Min” value [10]?
Answer: 25.7 ng/mL

Question: And the “Compound I Concentration, Max” value [11]?
Answer: 83.2 ng/mL

Question: What about the “Compound I Concentration, Mean” value [11] of the same compound?
Answer: 50.2 ng/mL

Question: What about the “Compound I Concentration, Min” value [11] of the same compound?
Answer: 30.5 ng/mL

Question: And the “Compound I Concentration, Max” value [12]?
Answer: 67.2 ng/mL

Question: What about the “Compound I Concentration, Mean” value [12] of the same compound?
Answer: 38.0 ng/mL

Question: What about the “Compound I Concentration, Min” value [12] of the same compound?
Answer: 20.3 ng/mL

Question: What about the “Compound I Concentration, Max” value [13] of the same compound?
Answer: 67.4 ng/mL

Question: What about the “Compound I Concentration, Mean” value [13] of the same compound?
Answer: 36.7 ng/mL

Question: What about the “Compound I Concentration, Min” value [13] of the same compound?
Answer: 15.8 ng/mL

Question: What about the “Compound I Concentration, Max” value [14] of the same compound?
Answer: 59.7 ng/mL

Question: What about the “Compound I Concentration, Mean” value [14] of the same compound?
Answer: 32.2 ng/mL

Question: And the “Compound I Concentration, Min” value [14]?
Answer: 13.0 ng/mL

Question: What about the “Compound I Concentration, Max” value [15] of the same compound?
Answer: 58.1 ng/mL

Question: What about the “Compound I Concentration, Mean” value [15] of the same compound?
Answer: 28.5 ng/mL

Question: And the “Compound I Concentration, Min” value [15]?
Answer: 10.2 ng/mL
